Laboratory results as given in ChEMBL document CHEMBL5360607, “The Hitchhiker's Guide to Deep Learning Driven Generative Chemistry” (ACS Med Chem Lett, 2023).
Values belong to the compound of their own block, whether it stands above or below them.

Tests used:
[1] = target: T1, Macrophage colony-stimulating factor 1 receptor (Homo sapiens, UniProt P07333); test: Inhibition of FMS (unknown origin)
[2] = target: T2, Receptor-type tyrosine-protein kinase FLT3 (Homo sapiens, UniProt P36888); test: Inhibition of FLT3 (unknown origin)
T2 sequence (P36888 whole entry): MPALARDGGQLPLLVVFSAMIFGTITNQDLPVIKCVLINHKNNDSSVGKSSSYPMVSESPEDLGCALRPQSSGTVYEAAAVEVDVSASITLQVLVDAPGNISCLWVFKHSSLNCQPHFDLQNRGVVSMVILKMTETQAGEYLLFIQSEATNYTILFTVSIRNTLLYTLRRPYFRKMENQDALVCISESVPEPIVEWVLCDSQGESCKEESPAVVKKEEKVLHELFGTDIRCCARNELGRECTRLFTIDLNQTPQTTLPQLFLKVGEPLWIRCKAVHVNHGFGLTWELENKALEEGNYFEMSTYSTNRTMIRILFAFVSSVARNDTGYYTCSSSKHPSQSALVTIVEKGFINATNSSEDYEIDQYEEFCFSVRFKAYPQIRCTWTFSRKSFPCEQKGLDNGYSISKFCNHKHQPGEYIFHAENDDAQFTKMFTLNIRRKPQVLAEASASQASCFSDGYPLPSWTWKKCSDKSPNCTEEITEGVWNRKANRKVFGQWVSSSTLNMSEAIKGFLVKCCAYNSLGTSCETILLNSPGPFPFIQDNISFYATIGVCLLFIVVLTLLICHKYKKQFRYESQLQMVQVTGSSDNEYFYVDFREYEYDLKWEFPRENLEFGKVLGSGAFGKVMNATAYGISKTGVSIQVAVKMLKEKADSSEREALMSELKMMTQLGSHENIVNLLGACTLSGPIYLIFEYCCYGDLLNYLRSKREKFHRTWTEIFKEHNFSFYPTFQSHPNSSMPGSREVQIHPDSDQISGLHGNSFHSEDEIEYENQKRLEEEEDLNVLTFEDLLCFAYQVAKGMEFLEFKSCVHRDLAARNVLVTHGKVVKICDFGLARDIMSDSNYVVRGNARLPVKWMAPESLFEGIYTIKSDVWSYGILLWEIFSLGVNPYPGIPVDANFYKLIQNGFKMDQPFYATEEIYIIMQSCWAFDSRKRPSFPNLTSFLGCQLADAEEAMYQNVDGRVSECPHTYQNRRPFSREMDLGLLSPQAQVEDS

[3] = target: Tyrosine-protein kinase JAK2 (Homo sapiens) (UniProt O60674); test: Inhibition of JAK2 (unknown origin) at 1 uM relative to control
[4] = target: Fibroblast growth factor receptor 1 (Homo sapiens, UniProt P11362); test: Inhibition of FGFR1 (unknown origin)
[5] = target: Fibroblast growth factor receptor 3 (Homo sapiens, UniProt P22607); test: Inhibition of FGFR3 (unknown origin)
[6] = target: Fibroblast growth factor receptor 4 (Homo sapiens, UniProt P22455); test: Inhibition of FGFR4 (unknown origin)
[7] = target: Fibroblast growth factor receptor 2 (Homo sapiens, UniProt P21802); test: Inhibition of FGFR2 (unknown origin)
[8] = target: Tyrosine-protein kinase BTK (Homo sapiens, UniProt Q06187); test: Inhibition of BTK (unknown origin)
[9] = target: T3, High affinity nerve growth factor receptor (Homo sapiens, UniProt P04629); test: Inhibition of TRKA (unknown origin) at 10 uM relative to control
Target sequence in this assay (P04629 33-796 limits assumed): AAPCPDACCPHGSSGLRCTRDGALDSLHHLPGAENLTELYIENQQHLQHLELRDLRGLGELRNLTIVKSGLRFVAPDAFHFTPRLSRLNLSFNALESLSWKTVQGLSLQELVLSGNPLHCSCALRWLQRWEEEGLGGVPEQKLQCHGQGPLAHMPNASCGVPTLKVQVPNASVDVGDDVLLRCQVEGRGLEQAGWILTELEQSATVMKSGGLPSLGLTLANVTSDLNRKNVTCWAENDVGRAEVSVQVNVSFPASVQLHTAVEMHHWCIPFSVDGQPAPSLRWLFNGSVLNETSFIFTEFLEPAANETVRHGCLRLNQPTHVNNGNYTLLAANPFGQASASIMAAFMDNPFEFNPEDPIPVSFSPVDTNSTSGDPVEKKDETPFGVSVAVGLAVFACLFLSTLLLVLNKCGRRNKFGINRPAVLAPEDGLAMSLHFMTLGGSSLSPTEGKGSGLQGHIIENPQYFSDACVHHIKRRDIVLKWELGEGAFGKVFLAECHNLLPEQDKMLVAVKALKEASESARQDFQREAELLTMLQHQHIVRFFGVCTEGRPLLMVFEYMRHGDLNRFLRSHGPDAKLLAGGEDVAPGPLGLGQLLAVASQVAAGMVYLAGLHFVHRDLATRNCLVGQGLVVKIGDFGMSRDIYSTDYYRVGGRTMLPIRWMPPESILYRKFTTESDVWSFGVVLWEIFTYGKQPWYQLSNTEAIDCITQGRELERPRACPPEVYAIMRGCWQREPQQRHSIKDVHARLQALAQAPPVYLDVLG

[10] = target: Protein kinase C (PKC) (Homo sapiens) (UniProt O94806+P41743+P17252+P05129+Q05655+P05771+Q05513+Q02156+P24723+Q15139+Q04759); test: Inhibition of PKC (unknown origin) at 10 uM relative to control; type: protein assay
[11] = target: Receptor-type tyrosine-protein kinase FLT3 (Homo sapiens, UniProt P36888, D835Y); test: Inhibition of FLT3 D835Y (unknown origin)
[12] = target: T3, High affinity nerve growth factor receptor; test: Inhibition of TRKA (unknown origin)
Homo sapiens = species on record: Homo sapiens; test: Inhibition of FLT (unknown origin) at 10 uM relative to control
[13] = target: Fibroblast growth factor receptor (Homo sapiens) (UniProt P22607+P11362+P22455+P21802); test: Inhibition of FGFR (unknown origin) at 10 uM relative to control; type: protein assay
[14] = target: Maternal embryonic leucine zipper kinase (Homo sapiens) (UniProt Q14680); test: Inhibition of MELK (unknown origin) at 10 uM relative to control
Adenosine receptor A1 = target: T4, Adenosine receptor A1 (Homo sapiens, UniProt P30542); test: Binding affinity to adenosine receptor A1 (unknown origin) assessed as inhibition constant
T4 sequence (P30542 whole entry): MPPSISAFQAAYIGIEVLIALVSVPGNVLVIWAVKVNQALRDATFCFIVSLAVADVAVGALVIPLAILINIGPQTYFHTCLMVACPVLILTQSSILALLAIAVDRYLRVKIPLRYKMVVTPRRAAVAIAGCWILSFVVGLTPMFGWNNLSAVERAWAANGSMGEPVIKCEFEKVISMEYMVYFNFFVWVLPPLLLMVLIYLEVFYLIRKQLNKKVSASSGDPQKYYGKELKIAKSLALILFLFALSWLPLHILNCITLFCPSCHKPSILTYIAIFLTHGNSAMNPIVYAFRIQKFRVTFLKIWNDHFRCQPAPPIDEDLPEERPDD

Adenosine receptor A2a = Adenosine receptor A2a (Homo sapiens, UniProt P29274); test: Binding affinity to adenosine receptor A2a (unknown origin) assessed as inhibition constant
[15] = target: T1, Macrophage colony-stimulating factor 1 receptor; test: Inhibition of CSF1R (unknown origin)
[16] = target: Serine/threonine-protein kinase B-raf (Homo sapiens, UniProt P15056); test: Inhibition of BRAF (unknown origin)

T1 sequence (P07333 whole entry): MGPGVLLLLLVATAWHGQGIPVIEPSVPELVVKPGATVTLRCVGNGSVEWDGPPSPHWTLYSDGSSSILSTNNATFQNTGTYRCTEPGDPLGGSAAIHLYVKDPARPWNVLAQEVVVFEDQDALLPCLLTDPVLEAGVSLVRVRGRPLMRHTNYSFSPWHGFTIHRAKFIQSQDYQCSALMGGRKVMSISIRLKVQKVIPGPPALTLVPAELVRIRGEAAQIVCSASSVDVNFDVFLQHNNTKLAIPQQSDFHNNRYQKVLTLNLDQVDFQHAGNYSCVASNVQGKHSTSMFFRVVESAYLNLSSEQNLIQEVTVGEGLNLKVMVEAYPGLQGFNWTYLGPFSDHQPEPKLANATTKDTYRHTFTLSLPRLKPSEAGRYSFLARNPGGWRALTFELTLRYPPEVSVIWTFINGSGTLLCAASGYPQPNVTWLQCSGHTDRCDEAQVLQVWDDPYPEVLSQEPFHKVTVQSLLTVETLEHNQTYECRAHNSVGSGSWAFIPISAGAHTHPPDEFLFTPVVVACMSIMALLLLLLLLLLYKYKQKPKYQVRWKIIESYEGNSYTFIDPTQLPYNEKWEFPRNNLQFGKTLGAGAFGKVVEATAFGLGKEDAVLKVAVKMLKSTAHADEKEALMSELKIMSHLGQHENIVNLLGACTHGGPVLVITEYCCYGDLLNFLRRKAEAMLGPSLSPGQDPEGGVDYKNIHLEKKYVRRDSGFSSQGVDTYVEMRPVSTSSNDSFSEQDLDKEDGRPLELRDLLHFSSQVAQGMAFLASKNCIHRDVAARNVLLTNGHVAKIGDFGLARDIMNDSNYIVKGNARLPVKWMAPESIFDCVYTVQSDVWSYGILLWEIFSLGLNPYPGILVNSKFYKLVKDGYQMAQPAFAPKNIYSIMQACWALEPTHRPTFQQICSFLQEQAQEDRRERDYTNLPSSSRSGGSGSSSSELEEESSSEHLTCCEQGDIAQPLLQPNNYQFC
Tyrosine-protein kinase JAK2 (Homo sapiens), sequence (O60674 whole entry): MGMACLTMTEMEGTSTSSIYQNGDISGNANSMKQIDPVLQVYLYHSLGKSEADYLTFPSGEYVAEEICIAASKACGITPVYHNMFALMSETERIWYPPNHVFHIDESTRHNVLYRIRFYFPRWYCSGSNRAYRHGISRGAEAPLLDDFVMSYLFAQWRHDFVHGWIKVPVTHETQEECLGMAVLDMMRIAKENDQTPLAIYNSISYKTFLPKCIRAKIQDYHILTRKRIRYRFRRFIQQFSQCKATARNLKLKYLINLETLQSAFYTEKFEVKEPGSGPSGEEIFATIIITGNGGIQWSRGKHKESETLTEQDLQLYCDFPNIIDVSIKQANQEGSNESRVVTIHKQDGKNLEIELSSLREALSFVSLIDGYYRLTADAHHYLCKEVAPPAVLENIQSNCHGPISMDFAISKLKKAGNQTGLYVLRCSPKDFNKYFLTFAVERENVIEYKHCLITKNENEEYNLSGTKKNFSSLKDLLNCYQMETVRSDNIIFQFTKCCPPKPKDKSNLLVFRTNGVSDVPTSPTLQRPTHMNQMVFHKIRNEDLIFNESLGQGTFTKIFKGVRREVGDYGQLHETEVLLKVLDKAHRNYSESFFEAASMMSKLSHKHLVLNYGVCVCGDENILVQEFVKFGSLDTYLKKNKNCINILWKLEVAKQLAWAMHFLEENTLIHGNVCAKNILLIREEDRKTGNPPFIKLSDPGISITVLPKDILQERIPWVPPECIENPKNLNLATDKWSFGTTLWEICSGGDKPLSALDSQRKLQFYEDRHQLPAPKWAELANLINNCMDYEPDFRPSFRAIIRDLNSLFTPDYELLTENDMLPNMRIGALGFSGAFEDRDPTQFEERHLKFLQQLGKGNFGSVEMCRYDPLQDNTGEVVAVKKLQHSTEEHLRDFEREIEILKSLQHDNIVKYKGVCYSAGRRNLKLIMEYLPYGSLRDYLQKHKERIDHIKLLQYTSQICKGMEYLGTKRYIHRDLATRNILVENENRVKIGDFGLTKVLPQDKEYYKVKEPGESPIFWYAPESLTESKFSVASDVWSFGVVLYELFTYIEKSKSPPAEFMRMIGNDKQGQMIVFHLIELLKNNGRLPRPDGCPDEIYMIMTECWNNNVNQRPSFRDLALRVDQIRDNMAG
Fibroblast growth factor receptor 2, sequence (P21802 whole entry): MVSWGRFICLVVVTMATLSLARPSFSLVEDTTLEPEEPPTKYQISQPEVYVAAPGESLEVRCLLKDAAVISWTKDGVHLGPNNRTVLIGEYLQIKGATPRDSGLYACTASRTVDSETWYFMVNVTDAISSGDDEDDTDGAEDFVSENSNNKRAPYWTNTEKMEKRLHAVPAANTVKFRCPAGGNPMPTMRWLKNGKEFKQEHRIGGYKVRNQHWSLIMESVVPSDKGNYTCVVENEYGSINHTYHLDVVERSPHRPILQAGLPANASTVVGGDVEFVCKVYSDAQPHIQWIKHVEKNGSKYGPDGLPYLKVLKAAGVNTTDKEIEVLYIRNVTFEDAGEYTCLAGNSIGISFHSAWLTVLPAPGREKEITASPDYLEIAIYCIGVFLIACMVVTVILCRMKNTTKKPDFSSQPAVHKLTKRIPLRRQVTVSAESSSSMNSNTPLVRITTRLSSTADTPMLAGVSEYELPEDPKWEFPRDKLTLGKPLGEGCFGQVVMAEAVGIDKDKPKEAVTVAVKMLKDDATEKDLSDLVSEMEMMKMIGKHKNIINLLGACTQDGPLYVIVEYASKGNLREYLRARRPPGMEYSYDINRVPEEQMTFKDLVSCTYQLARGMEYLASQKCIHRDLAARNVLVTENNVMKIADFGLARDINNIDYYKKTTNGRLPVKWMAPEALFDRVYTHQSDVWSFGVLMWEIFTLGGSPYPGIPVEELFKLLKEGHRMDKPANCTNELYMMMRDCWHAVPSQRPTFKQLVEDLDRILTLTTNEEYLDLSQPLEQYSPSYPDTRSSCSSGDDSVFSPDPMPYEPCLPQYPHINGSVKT
Maternal embryonic leucine zipper kinase (Homo sapiens), sequence (Q14680 whole entry, looked up): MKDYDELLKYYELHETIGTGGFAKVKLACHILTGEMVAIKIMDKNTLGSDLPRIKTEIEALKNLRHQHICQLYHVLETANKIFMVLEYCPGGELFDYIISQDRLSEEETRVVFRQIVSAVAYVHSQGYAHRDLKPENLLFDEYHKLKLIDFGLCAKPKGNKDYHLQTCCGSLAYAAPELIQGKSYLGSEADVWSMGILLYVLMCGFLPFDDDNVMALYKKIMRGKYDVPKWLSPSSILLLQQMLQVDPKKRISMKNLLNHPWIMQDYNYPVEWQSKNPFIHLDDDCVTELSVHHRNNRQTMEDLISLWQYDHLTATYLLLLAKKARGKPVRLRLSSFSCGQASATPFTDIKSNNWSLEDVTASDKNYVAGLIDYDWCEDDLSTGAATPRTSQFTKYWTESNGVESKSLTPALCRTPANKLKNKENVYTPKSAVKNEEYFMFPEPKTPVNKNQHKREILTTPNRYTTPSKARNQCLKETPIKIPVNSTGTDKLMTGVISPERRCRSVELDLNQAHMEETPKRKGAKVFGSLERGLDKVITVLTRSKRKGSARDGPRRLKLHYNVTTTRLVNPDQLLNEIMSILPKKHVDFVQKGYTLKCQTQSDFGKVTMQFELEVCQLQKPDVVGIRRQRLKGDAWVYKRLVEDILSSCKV
Adenosine receptor A2a, sequence (P29274 whole entry): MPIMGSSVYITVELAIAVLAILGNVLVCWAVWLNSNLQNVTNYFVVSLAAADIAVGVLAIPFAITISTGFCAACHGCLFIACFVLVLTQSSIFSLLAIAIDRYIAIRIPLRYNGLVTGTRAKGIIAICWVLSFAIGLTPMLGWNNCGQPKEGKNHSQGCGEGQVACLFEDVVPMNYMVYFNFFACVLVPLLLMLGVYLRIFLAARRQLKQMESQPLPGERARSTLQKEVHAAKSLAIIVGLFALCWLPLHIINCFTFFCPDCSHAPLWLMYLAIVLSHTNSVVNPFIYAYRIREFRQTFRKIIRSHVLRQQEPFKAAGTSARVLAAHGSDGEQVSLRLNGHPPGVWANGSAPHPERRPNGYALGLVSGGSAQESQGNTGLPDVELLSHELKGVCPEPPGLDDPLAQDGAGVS

IC50 [1]: < 0.1 µM
IC50 [2]: < 0.1 µM
SMILES: COc1ncc(CNc2ccc(Cc3c[nH]c4ncc(C(F)(F)F)cc34)c(F)n2)cc1F

inhibition [9]: 55%
inhibition [10]: 35%
IC50 [11]: 1.83 µM
IC50 [12]: 5.8 µM
IC50 [2]: 13.6 µM
inhibition (Homo sapiens): 45%
inhibition [13]: 35%
inhibition [14]: 35%
SMILES: CN(C)S(=O)(=O)Nc1cccc(-c2cnn(-c3ccc(C(F)(F)F)cc3)c2)c1

IC50 [15]: 0.02 µM
SMILES: O=C(NCc1ccc(C(F)(F)F)nc1)Nc1ccc(Oc2ncnc3[nH]ccc23)cc1

inhibition [3]: 88%
SMILES: CNC(=O)c1ccccc1Nc1c(C(F)(F)F)cnc2[nH]c(-c3ccc(F)cc3)cc12

EC50 [16]: 0.493 µM
SMILES: COc1cncc(-c2cn(-c3c(F)ccc(NS(=O)(=O)C(C)C)c3F)nn2)c1

The remaining lines, values behind:

SMILES: CN(c1ncccc1CNc1c(C#N)cnc2[nH]ccc12)S(C)(=O)=O
inhibition [3]: 68%

SMILES: C=CC(=O)N1CC[C@H](n2cc(-c3cc4ccccc4o3)c3c(N)n[nH]c(=O)c32)C1
IC50 [4]: < 0.01 µM
IC50 [5]: < 0.01 µM
IC50 [6]: < 0.01 µM
IC50 [7]: < 0.01 µM

SMILES: COc1ccc(F)cc1C(=O)NCc1ccc(-c2nn(C3CCCC3)c3c(=O)[nH]nc(N)c23)cc1
IC50 [8]: 0.0005 µM

SMILES: O=c1[nH]nc(NC2CCCC2)c2nnn(Cc3cccs3)c12
Ki (Adenosine receptor A1): 0.0467 µM
Ki (Adenosine receptor A2a): 0.895 µM
